Patent US20100022639A1, “Methods of Inducing Weight Loss” (The Johns Hopkins University School of Medicine Licensing …, priority 2000, published 2010)

Tests used:
[1] = Body weight of ob/ob mice over two week treatment; assay type: in vivo; conditions: 22 mg/kg IP every third day, two weeks
Source text: The magnitude of this effect is readily evident by inspection of representative C-75 and control treated ob/ob mice.

feeding behavior [2] = test: Feeding interval in 24 hour fasted mice; assay type: in vivo; conditions: 30 mg/kg IP, within 20 minutes of treatment
Protocol: Mice were fasted for 24 hours to induce voracious feeding. Initial feeding interval (time in seconds between food presentation and initiation of feeding) was measured in naive mice (pretreat). Mice were then treated by I.P. injection of 30 mg/kg C-75 or RPMI vehicle and feeding interval determined at 20, 40 and 60 minutes post-injection. Observation was terminated if no feeding was initiated within 1000 see (experimental cut off). Times represent mean +/−SEM, (n=4).
Prior to treatment, all animals fed ravenously within 3 minutes of being offered food.

[3] = Body weight after a single IP injection; assay type: in vivo, BALB/c mice
Protocol: (§1) The effect of C-75 treatment on feeding behavior and body weight in mice is both rapid and dramatic. A single treatment leads to the loss of as much as 20% of total body weight within 24 hours (FIG. 1.2A). This weight loss occurs in a dose dependent manner and persists for a duration that increases with dose. In all cases, treated animals recover lost body weight after the effect of the drug has dissipated, arguing against induction of a persistent wasting.
Male BALB/c mice 19-22 g were weighed, treated by a single intra peritoneal (I.P.) injection and housed in metabolic cages. Body weight (FIG. 1.2A) and food intake (FIG. 1.2B) were monitored at 24 hour intervals.

[4] = Necropsy, histology, plasma alanine aminotransferase and tolerability in treated mice; assay type: in vivo
Source text: Alternatively, the signal from the FAS target tissue to the hypothalamus may be mediated by a humoral signal. This FAS-associated signal appears to be independent of the systemic release of the known feeding inhibitory hormones leptin and insulin, and the pro-inflammatory cytokines tumor necrosis factor-α and interleukin-1β. Nor is it reversed by administration of dexamethasone, a synthetic glucocorticoid.
as §1

[5] = test system: neuropeptide Y (NPY) mRNA; test: Northern blot of hypothalamic NPY mRNA; assay type: in vivo, BALB/c mice; conditions: 30 mg/kg C-75, 24 hours
Source text: The control of body weight is integrated in the hypothalamus by a coordinated group of neuropeptides that monitor adiposity and feeding status and regulate feeding and energy utilization. A central regulator in this process is neuropeptide Y (NPY) (loftus, 1999, Sem. Cell. Dev. Biol., 10: 11). In the arcuate nucleus, the level of NPY increases in the fasted state (Schwartz, et al., 1998, Endocrinology, 139:2629), acting as a potent stimulus of feeding (O'Shea, et al., 1997, Endocrinology, 138:196-202). To ascertain whether C-75 might alter NPY regulation in the hypothalamus, the expression of NPY was examined by northern blot analysis of hypothalamic tissue microdissected from the brains of the fed, fasted and C-75-treated mice shown in FIG. 2A.
The hypothalamic region was microdissected from the brains of mice in FIG. 2A and total RNA was isolated. RNA was subjected to northern blot analysis using random primed probes (Feinberg, et al., 1983, Anal. Biochem., 132:6) for NPY and S26 (as a loading control). Tissue was extracted for total RNA as described, P. Chomczynski and N. Sacchi, Anal. Biochem. 162, 156(1987). 15 μg of total RNA was subjected to Northern blot analysis as described, T. Brown, K. Mackey, in Current Protocols in Molecular Biology, F. Ausubel, et al., Eds. (John Wiley and Sons, New York, 1997) pp. 4.9.1-4.9.16.

feeding behavior [6] = test: Food intake after ICV injection of C-75; assay type: in vivo, mice; conditions: ICV 2 μl at 2.5 or 5 μg/μl, food intake over 2 and 4 hours
Protocol: This model predicts that feeding inhibition by FAS inhibitors should be attenuated by inhibitors of ACC's. To test this, mice were pretreated with the ACC inhibitor TOFA or vehicle by ICV injection and examined the ability of C-75, administered IP, to inhibit feeding. BALB/c mice were anesthetized with metofane and injected ICV with 2 μg of TOFA or DMSO vehicle. After 2 hours recovery, mice were injected IP with 15 mg C-75/kg or RPMI vehicle and monitored for total food intake over 2 hours. […] In addition, mice were anesthetized and injected ICV with 2 μl of RPMI or C-75 at 2.5 or 5 μg/μl and food intake monitored over 2 (shaded) and 4 (solid) hours. The efficacy of centrally administered TOFA argues for a central (CNS) mechanism of action. ICV administration of C-75 inhibited feeding by 82% (FIG. 5C), supporting the central target action of C-75. FIGS. 5(B) and (C) combine results from 3 experiments with N=3 for each (9 total).

serum glucose [7] = test: Serum glucose in wild-type mice, acute treatment; assay type: in vivo, BALB/c mice; conditions: 30 mg/kg IP, 24 hours, n=7
Protocol: (§2) In addition to obesity, ob/ob mice also develop overt diabetes with significant elevation of blood glucose. C-75 corrected the hyperglycemia observed in vehicle treated mice with a nearly 3-fold reduction in mean serum glucose (FIG. 4A). Male ob/ob mice (n=3) were treated with C-75 or vehicle for 2 weeks (FIGS. 3B and C) and compared with age matched, untreated c57BL/6j mice (+/+). […] The normalization of blood glucose occurred from the profound weight loss in the ob/ob mice as acute treatment of normal mice with C-75 had no effect on serum other than that resulting from inhibition of feeding (FIG. 4B). Male BALB/c mice (n=7) were fasted for 24 hours or injected IP with 30 mg/kg C-75 or RPMI vehicle and allowed free access to food for 24 hours. In both cases, serum was collected at death and assayed for glucose: RefLab™ GLU (Medical Analysis Systems, Inc., Camarillo, Calif.). […] Both panels are representative of 2 experiments.

serum glucose [8] = test: Serum glucose in ob/ob mice; assay type: in vivo; conditions: 2 weeks treatment, n=3
Protocol: as §2

3T3-L1 adipocytes = test: Cytoplasmic triglyceride accumulation in adipocytes in cell culture; assay type: cell-based; conditions: 3T3-L1 adipocytes in cell culture (not shown)

For `C=C1C(=O)OC(CCCCCCCC)C1C(=O)O` (stereo not shown) [C-75], the “body weight of ob/ob mice” value [1] was “substantial reduction in the body weight”, the “feeding initiation in fasted mice” value (feeding behavior [2]) was “lost all interest in feeding” and the “loss of total body weight after a single treatment” value ([3]; within 24 hours, single IP treatment, 7.5-30 mg/kg) was at most 20%. For the same compound, the “loss of total body weight” value ([3]; within a 24 hour period, BALB/c mice) was 10-20%, the tolerability in mice ([4]; single IP treatment) was “well tolerated” and the “histological analysis of tissues from treated mice” value ([4]; single IP treatment (not shown)) was “no indication of adverse pathology”. For the same compound, the “necropsy and histological analysis of all major organs” value ([4]; treated mice) was “no adverse pathology”, the “plasma alanine aminotransferase activity” value ([4]; treated mice) was “unchanged” and the “level of hypothalamic NPY mRNA” value [5] was “even lower than that of the fed controls”. The “inhibition of feeding by ICV administration” value (feeding behavior [6]) was 82%, the “effect on serum glucose in wild-type mice” value (serum glucose [7]) was “no effect on serum glucose beyond that attributable to fasting” and the “reduction in mean serum glucose” value (serum glucose [8]) was about 3 fold. The cytoplasmic triglyceride accumulation (3T3-L1 adipocytes) was “markedly reduces cytoplasmic triglyceride accumulation”.
